Experimental data from paper PMC6036174 (Frontiers in Microbiology, 2018).
Where “and” joins values, the source holds several entries; their conditions need not be identical. Equal values may be shown once.

Legend:
[1] = test system: M. tuberculosis H37Rv (ATCC 27294); assay: resazurin microtiter assay, MIC against M. tuberculosis H37Rv; type: cell-based, Mycobacterium tuberculosis; settings: Mycobacterium tuberculosis, 168 h, 7 days 37°C, 90% inhibition of growth, read-out: MIC90
M. tuberculosis CDC1551 = assay: broth tube MIC (visible pellet) against M. tuberculosis CDC1551; type: cell-based, Mycobacterium tuberculosis; settings: Mycobacterium tuberculosis, 336 h; M. tuberculosis CDC1551; 14 days 37°C; no visible pellet; read-out: MIC100
M. smegmatis cells = test system: M. smegmatis cells; set-up: method as in Wei et al., [2003]; settings: ref Wei et al., [2003]; cited from earlier work
[2] = A549 cell cytotoxicity (MTT); settings: human, A549 lung epithelial cells
[3] = VERO cell cytotoxicity (resazurin); settings: African green monkey, VERO (ATCC CCL-81) normal epithelial cells
M. tuberculosis H37Rv = settings: M. tuberculosis H37Rv; ref Poggi et al. ([2013]); cited from earlier work
[4] = set-up: method as in Poggi et al. ([2013]); settings: descriptive; ref Poggi et al. ([2013]); cited from earlier work
G. mellonella larvae = assay: in vivo toxicity in Galleria mellonella larvae; settings: for % Mortality: 72 h post-injection
Description: G. mellonella larvae in the 6th developmental stage were used to determine the in vivo cytotoxicity of the test complexes (Kellett et al., [2011]; Desbois and Coote, [2012]; McCann et al., [2012]). Thirty healthy larvae, each weighing between 0.2 and 0.4 g and with no cuticle discolouration, were used for each experiment. Fresh solutions of the test complexes were prepared immediately prior to testing under sterile conditions. Test compounds (0.05 g) were dissolved in DMSO (1 mL) and added to sterile water (9 mL) to give a stock solution/suspension (5,000 μg/mL). Test solutions/suspensions were prepared from the corresponding stock solution using Millipore water only to dilute to the desired concentration and each compound was screened across the concentration range of 5,000–100 mg/L. Test solutions/suspensions (20 μL) were administered to the larvae by injection directly into the haemocoel through the last pro-leg. The base of the pro-leg can be opened by applying gentle pressure to the sides of the larvae and this aperture will re-seal after removal of the syringe without leaving a scar. Larvae were placed in sterile Petri dishes and incubated at 30°C for 72 h. The survival of the larvae was monitored every 24 h. Death was assessed by the lack of movement in response to stimulus together with discolouration of the cuticle. Three controls were employed in all assays. The first consisted of untouched larvae maintained at the same temperature as the test larvae. The second was larvae with the pro-leg pierced with an inoculation needle but no solution injected. The third control was larvae that were inoculated with 20 μL of sterile water.

MDR ATCC 49967 = test system: MDR ATCC 49967; set-up: method as in Hoffman et al., [2013]; settings: ref Hoffman et al., [2013]; cited from earlier work
M. tuberculosis = test system: M. tuberculosis; set-up: method as in Oliveira et al., [2004]; settings: based on Na3[Fe(CN)5(INH)]·4H2O; ref Oliveira et al., [2004]; cited from earlier work
mammalian cancer cells = test system: mammalian cancer cells; set-up: method as in Oliveira et al., [2004]; settings: ref Oliveira et al., [2004], read-out: IC50 cytotoxicity; cited from earlier work

For `NNC(=O)c1ccncc1` [INH, Isoniazid, reference compound], the MIC90 [1] is listed as 0.44 µM and 0.06 µg/mL, the MIC (M. tuberculosis CDC1551) is listed as 0.44 µM and 0.06 µg/mL and the MIC (M. smegmatis cells) is listed as > 30 mg/mL and > 218.76 mM. The IC50 at 48 h [2] was 319 µg/mL and 2.33 mM and the IC50 at 24 h [3] was 333 µg/mL and 2.43 mM.
In the case of `NNC(=O)c1ccncc1.O.O.O.O=S(=O)([O-])[O-].[Cu+2]` [[Cu(INH)(H2O)]SO4·2H2O], the MIC (M. tuberculosis H37Rv) is listed as 2.2 µM and the solubility in water [4] is listed as “only very sparingly soluble in water”.
In the case of `c1cnc2c(c1)ccc1cccnc12` [phen, 1,10-phenanthroline, reference compound], the MIC90 [1] is reported as 11.2 µg/mL and 61.9 µM, the MIC (M. tuberculosis CDC1551) is reported as 3 µg/mL and 16.6 µM and the “% Mortality” value (G. mellonella larvae; 10 μg per larvae (33.33 mg/kg)) is reported as 0%. For the same compound, the “% Mortality” value (G. mellonella larvae; 20 μg per larvae (66.67 mg/kg)) was 80%, the “% Mortality” value (G. mellonella larvae; 40 μg per larvae (133.33 mg/kg)) was 80% and the “% Mortality” value (G. mellonella larvae; 100 μg per larvae (333.33 mg/kg)) was 100%. The larvae survived (G. mellonella larvae; highest administered concentration 0.1 mg (333 mg/kg) per larvae) was “all of the larvae injected at this concentration with phen died”, the “In vivo G. mellonella tolerance order in μmol” value (G. mellonella larvae; rank, 1st = best tolerated, from Table 2) was 5th and the “In vivo G. mellonella tolerance order in μmol (Normalized against no. of phens)” value (G. mellonella larvae; rank, normalized with respect to phen content) was 4th. The IC50 at 48 h [2] was 4.3 µg/mL and 23.9 µM and the IC50 at 24 h [3] was > 10 µg/mL and > 55.5 µM.
For `O=P([O-])([O-])OP(=O)([O-])[O-].[Co+2].[Co+2].c1cnc2c(c1)ccc1cccnc12.c1cnc2c(c1)ccc1cccnc12.c1cnc2c(c1)ccc1cccnc12.c1cnc2c(c1)ccc1cccnc12` [{[Co(phen)2]2(μ-P2O7)}], the MIC (MDR ATCC 49967) is given as 2.41 µM.
For `O=P([O-])([O-])OP(=O)([O-])[O-].[Cu+2].[Cu+2].c1cnc2c(c1)ccc1cccnc12.c1cnc2c(c1)ccc1cccnc12` [{[Cu(phen)]2(μ-P2O7)}], the MIC (MDR ATCC 49967) is given as 2.80 µM.
In the case of [CoCl(INH)2(H2O)]Cl·2.5H2O, the MIC (M. tuberculosis H37Rv) is given as 0.41 µM and the solubility in water [4] is given as “only very sparingly soluble in water”.
In the case of [Fe(CN)5(INH)]^3−, the MIC (M. tuberculosis) is listed as 0.43 µM and the IC50 (mammalian cancer cells) is listed as > 54 µM.
